Assay results reported in patent US10575520B2, “Cyclohexylamine-based compounds and uses thereof” (BOARD OF SUPERVISORS OF LOUISIANA STATE UNIVERSITY AND …, priority 2016, dated 2020).
Counter-ions that a name gives are not always drawn.

Columns and labels:
[1] = system: worker C. formosanus termites; assay: Dose-response feeding assay (termite mortality on treated filter paper)
Excerpt: Worker C. formosanus were collected from Brechtel Park, New Orleans, La. by methods known in the art. Bait crates (open-mesh plastic containers) filled with southern yellow pine or spruce-pine-fir sapwood were arranged into a lattice and buried near a C. formosanus infested tree and collected after 3 to 9 weeks. Termite-containing crates were held in 250-liter plastic garbage cans kept at room temperature (26-28 C) and 70-80% relative humidity with the original food source. Termites were collected from New Orleans on 13 Jun. 2006 (collection group A); 9 Aug. 2006 (collection group B); 1 Mar. 2008 (collection group C); 9 May 2008 (collection group D); 20 May 2008 (collection group E); 20 Mar. 2009 (collection group F); 29 May 2009 (collection group G) and 11 May 2010 (collection group H); 18 Aug. 2012 (collection group I); May 2014 (collection group J); August 2014 (collection group K). The termite collection procedure was tapping infested wood sticks into clean plastic containers where termites were collected on moistened paper towels.
(§1) 2-phospho-myo-inositol (dicyclohexylamine salt), glycerol-3-phosphate (dicyclohexylamine salt), dicyclohexylamine phosphate, monocyclohexylamine phosphate, and neat cyclohexylamine were screened for termiticide activity as follows: test compounds were applied to 42.5 mm×3 μm filter papers, in 60×15 mm plastic Petri dishes, in a solution of 1 mg of test compound per 10 μL of distilled water. Doses of 2.5 mg (160.2 μg/mm^3 of filter paper), 5 mg (320.4 μg/mm^3) 10 mg (640.8 μg/mm^3), and 20 mg (1281.7 μg/mm^3) of 2-phospho-myo-inositol were examined. Following filter paper treatment distilled water was added to bring the total volume applied to the filter papers to 300 μL, using 300 μL of distilled water as control. Cyclohexylamine was applied to the paper diluted in amounts of 300 μL, in concentrations ranging from 0.626 to 10.2 μg/mm^3. To prevent desiccation, approximately 50 μL of distilled water was applied to filter paper throughout the trials every third day, or upon observing that a filter paper disc was relatively dry. To test whether termite mortality was induced by consumption of the cyclohexylamine-treated paper, or whether vapor presence of cyclohexylamine was responsible for the toxicity, we compared addition of cyclohexylamine to both paper and fiberglass filters—the latter of which they will not consume. In addition to pure cyclohexylamine, dicyclohexylamine phosphate and monocyclohexylamine phosphate were tested for toxicity. Dicyclohexylamine phosphate was tested in concentrations ranging from 0.348 to 348 μg/mm^3, and monocyclohexylamine phosphate was tested in concentrations ranging from 2.28 to 228 μg/mm^3. Replicates of twenty worker termites were incubated in the dark in a parafilm-sealed Petri dish at room temperature for 2 weeks. Termite mortality was recorded daily in triplicate experiments. An analysis of variance (ANOVA) (SAS ANOVA procedure) followed by Tukey's Studentized range test was used to evaluate statistical differences among groups (Institute 1989). All mortality data were judged at a=0.05.
(§2) Termites from collection group B were used in the 2-Phospho-Myo-Inositol dose mortality assay. Termites from collection groups C and D were used in both the dicyclohexylamine-2-phophoinositol, and dicylclohexyalmine-glycerol-3-phosphate dose mortality assay. Termites from collection group I were used in cyclohexylamine dose mortality assays. Termites from collection […] in the dicyclohexylamine phosphate and neat cyclohexylamine volatility dose mortality assays. Termites from collection group K were used in the monocyclohexylamine phosphate dose mortality assay.

[2] = system: Spirotrichonympha leidyi Koidzumi; assay: Protozoan counting, S. leidyi; assay type: in vivo; conditions: 640.8 μg/mm^3, 14 day assay
Description: (§3) The effect of 2-phospho-myo-inositol dicyclohexylamine salt on C. formosanus hindgut protozoan populations was examined as follows: Ten mg of 2-phospho-myo-inositol were dissolved in 200 μL of distilled water and applied to filter paper, in a 60×15 mm plastic Petri dish, (640.8 μg/mm^3). Control filter paper received 200 μL of distilled water. With 75 worker termites per dish, collection group A were used. Pseudotrichonyrnpha grassii Koidzumi, Holornastigotoides hartmanni Koidzumi and Spirotrichonympha leidyi Koidzumi were counted daily for 2 week as described in Mannesmann, R., Z. Angew. Entomol. 72: 116-128 (1972); and modified by Maiastrello, L., et al., Pest Manag. Sci. 59: 58-68 (2002). Hindguts were removed from the posterior ends of three workers and gently macerated in 40 μL saline solution containing neutral red dye (0.5 mL of 1% aqueous neutral red solution dissolved in 10 mL saline solution). The number of each protozoan species was determined using a hemocytometer (Bright-line Improved Neubauer, Hausser Scientific, Horsham, Pa.) under a light microscope. The population of each protozoan species per hindgut (XF) was calculated as: XF=(G×n)/(V×3), where G=volume (μL) of solution hindguts dissected in; n=mean of two counts within hemocytometer; V=volume (μL) of area counted. Mean (±SE) XF values calculated from two replicates were used for graphical comparison of data. […]

[3] = system: C. formosanus hindgut protozoan populations; assay: Protozoan counting, total hindgut protozoa; assay type: in vivo, Coptotermes formosanus; conditions: 640.8 μg/mm^3, 14 day assay
Description: as §3

[4] = system: Holornastigotoides hartmanni Koidzumi; assay: Protozoan counting, H. hartmanni; assay type: in vivo; conditions: 640.8 μg/mm^3, 14 day assay
Description: as §3

[5] = system: Pseudotrichonyrnpha grassii Koidzumi; assay: Protozoan counting, P. grassii; assay type: in vivo; conditions: 640.8 μg/mm^3, 14 day assay
Description: as §3

[6] = system: worker termites (C. formosanus) antennae; assay: Termite antenna ablative shortening (antenna length quantification); assay type: in vivo, Coptotermes formosanus; conditions: 640.8 μg/mm^3, 14 day assay
Description: Fifty worker termites, from collection group B, were placed in a 60×15 mm polystyrene petri dish with 42.5 mm filter paper treated with 10 mg of 2-phospho-myo-inositol (640.8 μg/mm^3). Daily for 14 day three randomly selected termites were removed, euthanized with 5 μL of ethanol and their antennae were photographed, after which, GSA image analyzer was used to quantify the length of the termite antennae (Bansemer and Scheel 2010). Antenna length data were subjected to ANOVA followed by Tukey's Studentized range test (Institute 1989). All data were judged at α=0.05. All experiments were performed in triplicate.

[7] = system: worker C. formosanus termites; assay: Cyclohexylamine volatile effects (cellulose paper vs fiberglass filter mortality); conditions: 600 μg
Description: as §1, §2

[8] = system: worker C. formosanus termites; assay: Cellulose (filter paper) consumption; assay type: in vivo, Coptotermes formosanus
Description: In dose mortality experiments where paper consumption data are shown, filter papers were weighed in ambient humidity prior to sugar application. After 14 days termites were removed from the dishes and the filter paper from each replicate was cleaned, washed of residual carbohydrate and dried at 100 C for 24 h. After drying and humidity equilibration for 24 h, filter papers were reweighed for determination of paper consumption. […] All consumption data were judged at a=0.05.

O=P(O)(O)OC1[C@@H](O)[C@H](O)C(O)[C@H](O)[C@H]1O (stereo partly shown) [2-Phospho-Myo-Inositol, 2-phospho-myo-inositol (di-cyclohexylamine salt)]
mortality versus control group ([1]; 160.2 μg/mm^3 filter paper, 14 day assay): did not result in mortality significantly different from the control group | mortality versus control group ([1]; 320.4 μg/mm^3 filter paper, 14 day assay): did not result in mortality significantly different from the control group | mortality versus control group ([1]; 640.8 μg/mm^3 filter paper, 14 day assay): did not result in mortality significantly different from the control group | day on which mortality became significant ([1]; 1281.7 μg/mm^3): eight | mortality ([1]; 1281.7 μg/mm^3, day 14): 98% | mortality ([1]; 1281.7 μg/mm^3, day eight): Forty three | S. leidyi populations versus control [2]: significantly lower than controls on day nine and 11 | total protozoan populations versus control [3]: reduced total protozoan populations day four and thereafter | H. hartmanni populations versus control [4]: significantly reduced on day one, two, five, eight, nine, 10, 11 and 14 | P. grassii populations versus control [5]: significantly lowered on day one, five, eight, nine, 10 and 11 | termite antennae length versus control [6]: significantly reduced termite antennae of day five and six and eight through 14

C1CCC(NC2CCCCC2)CC1.O=P(O)(O)O [Dicyclohexylamine Phosphate, Dicyclohexylamine phosphate]
day on which mortality became significantly higher ([1]; 0.348 μg/mm^3): three | mortality ([1]; 0.348 μg/mm^3, day 14): 28% | mortality versus control ([1]; 1.22 μg/mm^3): The two highest dosage groups, 4.90 and 9.80 μg/mm^3, displayed mortality significantly different than the control | mortality versus control ([1]; 2.45 μg/mm^3): The two highest dosage groups, 4.90 and 9.80 μg/mm^3, displayed mortality significantly different than the control | day on which mortality became significantly different ([1]; 4.90 μg/mm^3): three | mortality ([1]; 4.90 μg/mm^3, day 14): 38% | day on which mortality became significantly different ([1]; 9.8 μg/mm^3): four | mortality ([1]; 9.8 μg/mm^3, day 14): 36% | mortality versus control group ([1]; 17.22 μg/mm^3): significantly different than the control group | mortality versus control group ([1]; 34.44 μg/mm^3): significantly different than the control group | day on which mortality became significantly different ([1]; 68.88 μg/mm^3): five | mortality ([1]; 68.88 μg/mm^3, day 14): 45% | mortality ([1]; 348 μg/mm^3, first day): 100%

NC1CCCCC1.O=P(O)(O)O [Monocyclohexylamine Phosphate, Monocyclohexylamine phosphate]
mortality versus control ([1]; 2.28 μg/mm^3): not significantly different from the control | mortality versus control ([1]; 22.8 μg/mm^3): not significantly different from the control | day on which mortality became significantly different ([1]; 228 μg/mm^3): 10 days | mortality ([1]; 228 μg/mm^3, day 10): 38% | mortality ([1]; 228 μg/mm^3, day 14): 100%

NC1CCCCC1 [Neat Cyclohexylamine, cyclohexylamine]
mortality versus control ([1]; 0.62 μg/mm^3): only the highest dosage group, 2.51 μg/mm^3, displayed significantly different mortality | mortality versus control ([1]; 0.82 μg/mm^3): only the highest dosage group, 2.51 μg/mm^3, displayed significantly different mortality | mortality versus control ([1]; 1.0 μg/mm^3 (lowest dosage of 1.0, 1.7, 2.4)): Only the two highest dosage groups displayed mortality significantly different from the control | mortality versus control ([1]; 1.25 μg/mm^3): only the highest dosage group, 2.51 μg/mm^3, displayed significantly different mortality | day on which mortality became significant ([1]; 1.7 μg/mm^3): eight | mortality ([1]; 1.7 μg/mm^3, day 14): 33% | day on which mortality became significant ([1]; 2.4 μg/mm^3): five | mortality ([1]; 2.4 μg/mm^3, day 14): 41% | day on which mortality became significantly different ([1]; 2.51 μg/mm^3): six | mortality ([1]; 2.51 μg/mm^3, day 14): 63% | mortality ([1]; 2.51 μg/mm^3, day six): 16% | mortality ([1]; 3.39 μg/mm^3, day three): 100% | mortality ([1]; 5.08 μg/mm^3, within one to three days): 100% | mortality ([1]; 10.2 μg/mm^3, day one): 100% | day on which mortality became significantly different ([7]; treatment of cellulose): eight | mortality ([7]; treatment of cellulose, day 14): 45% | mortality ([7]; treatment of cellulose, day eight): 25% | mortality versus corresponding control group ([7]; treatment of fiberglass): did not result in mortality significantly different than that of the corresponding control group | consumption rate per termite versus control ([8]; 0.626 μg/mm^3, 14 days): did not result in a consumption rate per termite significantly different from the control group | consumption rate (per surviving termites) versus control ([8]; 0.822 μg/mm^3, 14 days): significantly lower than the control group | consumption rate (per surviving termites) versus control ([8]; 1.253 μg/mm^3, 14 days): significantly lower than the control group | consumption rate (per surviving termites) versus control ([8]; 2.510 μg/mm^3, 14 days): significantly lower than the control group

C1CCC(NC2CCCCC2)CC1.O=P(O)(O)OCC(O)CO [glycerol-3-phosphate (dicyclohexylamine salt)]
day on which mortality became significant ([1]; higher dosage group, 640.8 μg/mm^3): 5 days | mortality ([1]; higher dosage group, 640.8 μg/mm^3, day 12): 98% | day on which mortality became significant ([1]; lower dosage group, 320.4 μg/mm^3): 12 days | mortality ([1]; lower dosage group, 320.4 μg/mm^3, day 14): 71%
